Laboratory results from patent publication US12473293B2, “Pharmacologically active heterocyclic-substituted pyrazolo[1,5-a]pyrimidine derivatives” (Richter Gedeon Nyrt., priority 2020, dated 2025).
Where a name gives a salt, the structure may show the parent alone.

These molecules were tested against T1, GABAB receptor (Rattus norvegicus, UniProt O88871+Q9Z0U4) (assay: In vitro [35S]GTPγS binding assay in rat cortical membranes). Settings: PAM EC50, [35S]GTPγS binding, read-out: In vitro PAM potency.
T1 construct: from tissue; host or cells: rat brain cortex membranes
T1 sequence (O88871 41-940): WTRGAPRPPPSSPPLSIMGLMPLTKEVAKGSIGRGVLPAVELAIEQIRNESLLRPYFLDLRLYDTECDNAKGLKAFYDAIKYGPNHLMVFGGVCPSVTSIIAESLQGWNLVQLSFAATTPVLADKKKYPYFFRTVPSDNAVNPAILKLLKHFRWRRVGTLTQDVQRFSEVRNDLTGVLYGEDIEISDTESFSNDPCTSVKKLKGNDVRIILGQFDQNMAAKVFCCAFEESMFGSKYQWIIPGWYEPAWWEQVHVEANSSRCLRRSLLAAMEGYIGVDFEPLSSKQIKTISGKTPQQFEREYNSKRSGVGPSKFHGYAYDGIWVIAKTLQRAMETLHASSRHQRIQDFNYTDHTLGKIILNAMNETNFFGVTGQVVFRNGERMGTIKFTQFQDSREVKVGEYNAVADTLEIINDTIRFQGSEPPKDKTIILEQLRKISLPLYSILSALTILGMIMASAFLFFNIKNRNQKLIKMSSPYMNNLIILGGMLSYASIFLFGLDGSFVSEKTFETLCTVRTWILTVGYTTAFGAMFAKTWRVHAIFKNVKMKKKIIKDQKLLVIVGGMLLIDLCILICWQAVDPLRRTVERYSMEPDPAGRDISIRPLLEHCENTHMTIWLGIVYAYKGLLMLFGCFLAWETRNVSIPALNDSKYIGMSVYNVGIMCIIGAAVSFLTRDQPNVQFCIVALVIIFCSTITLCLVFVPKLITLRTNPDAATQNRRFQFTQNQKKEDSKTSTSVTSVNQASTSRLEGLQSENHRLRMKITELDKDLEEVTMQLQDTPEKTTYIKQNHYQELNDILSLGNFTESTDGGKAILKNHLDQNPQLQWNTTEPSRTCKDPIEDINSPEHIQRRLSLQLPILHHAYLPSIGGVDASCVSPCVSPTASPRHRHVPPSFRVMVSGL
T1 sequence (Q9Z0U4 17-960 limits assumed): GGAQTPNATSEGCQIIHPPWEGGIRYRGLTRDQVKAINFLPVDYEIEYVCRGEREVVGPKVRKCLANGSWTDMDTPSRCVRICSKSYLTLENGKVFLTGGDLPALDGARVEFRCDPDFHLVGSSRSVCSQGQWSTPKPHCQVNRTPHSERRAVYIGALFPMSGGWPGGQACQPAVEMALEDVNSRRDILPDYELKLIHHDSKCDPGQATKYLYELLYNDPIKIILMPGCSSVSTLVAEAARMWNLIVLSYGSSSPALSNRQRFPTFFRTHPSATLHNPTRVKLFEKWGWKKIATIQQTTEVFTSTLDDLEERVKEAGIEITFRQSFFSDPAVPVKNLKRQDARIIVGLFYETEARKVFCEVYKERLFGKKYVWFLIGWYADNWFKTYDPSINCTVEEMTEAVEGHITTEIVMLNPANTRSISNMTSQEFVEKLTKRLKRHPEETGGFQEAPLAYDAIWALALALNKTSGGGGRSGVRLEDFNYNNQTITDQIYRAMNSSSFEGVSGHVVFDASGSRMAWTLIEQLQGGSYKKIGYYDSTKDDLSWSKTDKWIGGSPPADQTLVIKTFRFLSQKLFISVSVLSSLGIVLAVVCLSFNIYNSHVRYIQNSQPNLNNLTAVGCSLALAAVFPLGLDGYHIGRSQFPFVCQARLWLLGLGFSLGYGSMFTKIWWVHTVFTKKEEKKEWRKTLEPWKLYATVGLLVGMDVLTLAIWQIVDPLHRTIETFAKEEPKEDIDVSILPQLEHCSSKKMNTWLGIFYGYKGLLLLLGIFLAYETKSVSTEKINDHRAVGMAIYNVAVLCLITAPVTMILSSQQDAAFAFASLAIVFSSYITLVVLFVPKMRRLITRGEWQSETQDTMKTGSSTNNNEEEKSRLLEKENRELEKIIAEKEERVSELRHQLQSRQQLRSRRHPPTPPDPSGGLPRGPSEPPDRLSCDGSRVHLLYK
Type: biochemical
Method: In Vitro [^35S]GTPγS Binding Assay in Rat Cortical Membranes
Cortices of freshly harvested rat brains were dissected on an ice-cold surface and homogenized by a glass Dounce homogeniser immediately in ice-cold buffer containing 50 mM Tris, 5 mM MgCl2 and 1 mM EDTA (pH=7.6). Tissue homogenates were centrifuged at 40000 g for 15 min at 4° C. Membrane pellets were resuspended in the same buffer and membranes were incubated for 10 min at 30° C. in a shaking water bath to eliminate endogenous GABA. Homogenates were centrifuged again under the same conditions. The final pellets were resuspended in ice-cold buffer (pH=7.6) containing 50 mM Tris, 100 mM NaCl, 7 mM MgCl2, 1 mM EDTA and 1 mM dithiotreithol (DTT) to yield a concentration of 20 mg tissue weight/ml and frozen at −70° C. until use. The assay was done in a buffer containing 50 mM Tris (pH=7.4), 100 mM NaCl, 7 mM MgCl2, 1 mM EDTA and 1 mM DTT. Each assay tube contained 150 μL GDP (in a final concentration of 50 μM), 100 μL ligand and 125 μL of the membrane suspension ([…]). The assay tubes were preincubated for 10 min at 30° C. to assure equilibrium. Nonspecific binding was determined in the presence of 10 μM GTPγS; basal binding was determined in the presence of buffer only. After addition of […] [^35S]GTPγS in a volume of 25 μL to the tubes, membranes were incubated for an additional 60 min at 30° C. The assay was terminated by rapid filtration through Packard UniFilter GF/B using a Packard harvester and washed four times with 1 ml ice-cold buffer. After drying the filters at 40° C. for 1 h, 40 μL Microscint (Packard) was added to the filters and radioactivity of the filters was determined by a TopCount NXT (PerkinElmer, Waltham, MA; Alper and Nelson, Eur. J. Pharmacol. 1998, 343, 303-312; Rinken et al, Biochem. Pharmacol. 1999, 57, 155-162). Data thus gathered were used to determine PAM EC50 values for each compound as primary in vitro activity end point.
In Table 1 compounds of this invention measured in the [^35S]GTPγS binding assay are listed.
With `CCc1c(C)nc2cc([C@H]3CC[C@H](C(F)(F)F)CC3)nn2c1[C@@H]1CCCN(C(=O)OC)C1` [Example 51] the EC50 was 100 to 1000 nM. `Cc1cc(C2CCCN(C)C2=O)n2nc([C@H]3CC[C@H](C(F)(F)F)CC3)cc2n1` (stereo partly drawn) [Example 105] showed an EC50 of 1000 to 10000 nM. `Cc1cc([C@@H]2CN(C=O)CCO2)n2nc([C@H]3CC[C@H](C(F)(F)F)CC3)cc2n1` [Example 94] gave an EC50 of 1000 to 10000 nM. `CCc1c(C)nc2cc([C@H]3CC[C@H](C(F)(F)F)CC3)nn2c1[C@]1(C)CCCN(S(C)(=O)=O)C1` [Example 44] showed an EC50 of less than 100 nM. `CCOC(=O)N1CCO[C@H](c2cc(C)nc3cc([C@H]4CC[C@H](C(F)(F)F)CC4)nn23)C1` [Example 95] gave an EC50 of 1000 to 10000 nM. `Cc1nc2cc([C@H]3CC[C@H](C(F)(F)F)CC3)nn2c([C@]2(C)CCCN(CC#N)C2)c1C` [Example 18, 2-[(3R)-3-{5,6-dimethyl-2-[trans-4-(trifluoromethyl)cyclohexyl]pyrazolo[1,5-a]pyrimidin-7-yl}-3-methylpiperidin-1-yl]acetonitrile hydrochloride] showed an EC50 of 100 to 1000 nM. With `COC(=O)N1CCO[C@H](c2cc(C)nc3c(F)c([C@H]4CC[C@H](C(F)(F)F)CC4)nn23)C1` [Example 130] the EC50 was 100 to 1000 nM. In the case of `Cc1nc2cc([C@H]3CC[C@H](C(F)(F)F)CC3)nn2c([C@@H]2CCCN(C(=O)CN)C2)c1C` [Example 52], the EC50 is reported as 1000 to 10000 nM. For `COC(=O)N1CCC[C@H](c2cc(C)nc3cc([C@H]4CC[C@H](C(F)(F)F)CC4)nn23)[C@@H]1C` [Example 97], the EC50 was 100 to 1000 nM. Molecule `COC(=O)N1CC[C@H](C)[C@H](c2cc(C)nc3cc([C@H]4CC[C@H](C(F)(F)F)CC4)nn23)C1` (single isomer, unassigned) [Example 6] has an EC50 of 100 to 1000 nM. Molecule `COC(=O)N1CC[S+]([O-])C(c2cc(C)nc3cc([C@H]4CC[C@H](C(F)(F)F)CC4)nn23)C1` (stereo partly drawn) [Example 17] has an EC50 of 1000 to 10000 nM. `COC(=O)N1C[C@@H](c2cc(C)nc3cc([C@H]4CC[C@H](C(F)(F)F)CC4)nn23)OC[C@@H]1C` [Example 96] showed an EC50 of 1000 to 10000 nM. With `Cc1nc2cc([C@H]3CC[C@H](C(F)(F)F)CC3)nn2c([C@@H]2CN(C(=N)N)CC[C@@H]2C)c1C` (racemic) [Example 57] the EC50 was 100 to 1000 nM. Work on `CCC1CCN(C=O)CC1c1cc(C)nc2cc([C@H]3CC[C@H](C(F)(F)F)CC3)nn12` (stereo partly drawn) [Example 72] yielded an EC50 of 100 to 1000 nM. With `Cc1cc([C@H]2CN(C=O)[C@@H](C)CO2)n2nc([C@H]3CC[C@H](C(F)(F)F)CC3)cc2n1` [Example 103] the EC50 was 100 to 1000 nM. `Cc1cc([C@H]2CCCN(C=O)[C@H]2C)n2nc([C@H]3CC[C@H](C(F)(F)F)CC3)cc2n1` (racemic) [Example 81] showed an EC50 of 100 to 1000 nM. With `COC(=O)N1CCO[C@H](c2cc(C)nc3cc([C@H]4CC[C@H](C(F)(F)F)CC4)nn23)C1` [Example 93] the EC50 was 1000 to 10000 nM. “2-[(3R)-3-{5,6-dimethyl-2-[trans-4-(trifluoromethyl)cyclohexyl]pyrazolo[1,5-a]pyrimidin-7-yl}-3-methylpiperidin-1-yl]acetic acid hydrochloride [Example 19]” showed an EC50 of 100 to 1000 nM. For `Cc1cc([C@@H]2CCCN(C(=N)N)C2)n2nc([C@H]3CC[C@H](C(F)(F)F)CC3)cc2n1` [Example 23, (3R)-3-{5-methyl-2-[trans-4-(trifluoromethyl)cyclohexyl]pyrazolo[1,5-a]pyrimidin-7-yl}piperidine-1-carboximidamide hydrochloride], the EC50 was 100 to 1000 nM. Molecule `Cc1nc2cc([C@H]3CC[C@H](C(F)(F)F)CC3)nn2c(C2CN(C=O)CCO2)c1C` (stereo partly drawn) [Example 80] has an EC50 of 100 to 1000 nM. `Cc1cc([C@H]2CN(C(=O)c3nnc(C)o3)CCO2)n2nc([C@H]3CC[C@H](C(F)(F)F)CC3)cc2n1` [Example 123] showed an EC50 of 100 to 1000 nM. In the case of `Cc1cc([C@H]2CCCOC2)n2nc([C@H]3CC[C@H](C(F)(F)F)CC3)cc2n1` (single isomer, unassigned) [Example 28], the EC50 is reported as less than 100 nM. For `COC(=O)N1C[C@@H](c2cc(C)nc3cc([C@H]4CC[C@H](C(F)(F)F)CC4)nn23)OC[C@@H]1C(C)C` [Example 122], the EC50 was 100 to 1000 nM. Molecule `CC(=O)N1CCC[C@](C)(c2c(C)c(C)nc3cc([C@H]4CC[C@H](C(F)(F)F)CC4)nn23)C1` [Example 37] has an EC50 of 100 to 1000 nM. Work on `Cc1cc([C@]2(C)CCCN(C=O)C2)n2nc([C@H]3CC[C@H](C(F)(F)F)CC3)cc2n1` [Example 69] yielded an EC50 of 100 to 1000 nM. Work on `CC(=O)N1CCO[C@@H](c2c(C)c(C)nc3cc([C@H]4CC[C@H](C(F)(F)F)CC4)nn23)C1` [Example 88] yielded an EC50 of 100 to 1000 nM. In the case of `Cc1cc([C@@H]2CCCN(C(=O)C3CC3)C2)n2nc([C@H]3CC[C@H](C(F)(F)F)CC3)cc2n1` [Example 54], the EC50 is reported as 100 to 1000 nM. With `COC(=O)N1CCOC(c2cc(C)nc3cc([C@H]4CC[C@H](C(F)(F)F)CC4)nn23)C1` (stereo partly drawn) [Example 84] the EC50 was 100 to 1000 nM. In the case of `COC(=O)N1CC[C@@H](C)[C@@H](c2cc(C)nc3cc([C@H]4CC[C@H](C(F)(F)F)CC4)nn23)C1` (single isomer, unassigned) [Example 7], the EC50 is reported as 100 to 1000 nM. For `CC(=O)N1CCC[C@@](C)(c2c(C)c(C)nc3cc([C@H]4CC[C@H](C(F)(F)F)CC4)nn23)C1` [Example 45], the EC50 was 100 to 1000 nM. In the case of `Cc1cc([C@H]2CN(C(=O)OC(C)C)CCO2)n2nc([C@H]3CC[C@H](C(F)(F)F)CC3)cc2n1` [Example 99], the EC50 is reported as 100 to 1000 nM. Molecule `Cc1cc(C2CCCOC2)n2nc([C@H]3CC[C@H](C(F)(F)F)CC3)cc2n1` (mixture of isomers) [Example 161] has an EC50 of 100 to 1000 nM. Molecule `Cc1cc([C@H]2CN(C=O)CCO2)n2nc([C@H]3CC[C@H](C(F)(F)F)CC3)cc2n1` [Example 86] has an EC50 of 100 to 1000 nM. Molecule `Cc1cc([C@H]2CN(C(=O)c3cnco3)CCO2)n2nc([C@H]3CC[C@H](C(F)(F)F)CC3)cc2n1` [Example 114] has an EC50 of 100 to 1000 nM. For `CC(=O)N1CC[C@@H](C)[C@@H](c2cc(C)nc3c(F)c([C@H]4CC[C@H](C(F)(F)F)CC4)nn23)C1` (single isomer, unassigned) [Example 3], the EC50 was 1000 to 10000 nM. Molecule `CCOC(=O)N1CCC[C@H](c2cc(C)nc3cc([C@H]4CC[C@H](C(F)(F)F)CC4)nn23)[C@@H]1C` [Example 107] has an EC50 of 1000 to 10000 nM. In the case of `Cc1cc([C@]2(C)CCCN(CC#N)C2)n2nc([C@H]3CC[C@H](C(F)(F)F)CC3)cc2n1` [Example 50], the EC50 is reported as 100 to 1000 nM. In the case of `Cc1cc([C@H]2CN(C(N)=O)CCO2)n2nc([C@H]3CC[C@H](C(F)(F)F)CC3)cc2n1` [Example 26, (2R)-2-{5-methyl-2-[trans-4-(trifluoromethyl)cyclohexyl]pyrazolo[1,5-a]pyrimidin-7-yl}morpholine-4-carboxamide], the EC50 is reported as 100 to 1000 nM. With `Cc1cc([C@@H]2CCCN(C=O)C2)n2nc([C@H]3CC[C@H](C(F)(F)F)CC3)cc2n1` [Example 22, (3R)-3-{5-methyl-2-[trans-4-(trifluoromethyl)cyclohexyl]pyrazolo[1,5-a]pyrimidin-7-yl}piperidine-1-carbaldehyde] the EC50 was 100 to 1000 nM. With `Cc1cc([C@]2(C)CCCN(C(=N)N)C2)n2nc([C@H]3CC[C@H](C(F)(F)F)CC3)cc2n1` [Example 64] the EC50 was 1000 to 10000 nM. `Cc1cc(C2CN(C=O)CCO2)n2nc([C@H]3CC[C@H](C(F)(F)F)CC3)cc2n1` (stereo partly drawn) [Example 83] showed an EC50 of 100 to 1000 nM. `Cc1cc([C@@H]2CCCN(C(=O)N3CCOCC3)C2)n2nc([C@H]3CC[C@H](C(F)(F)F)CC3)cc2n1` [Example 65] gave an EC50 of 1000 to 10000 nM. `COC(=O)N1C[C@H](C)O[C@@H](c2cc(C)nc3cc([C@H]4CC[C@H](C(F)(F)F)CC4)nn23)C1` [Example 125] showed an EC50 of 100 to 1000 nM. With `CC(=O)N1CCCC(c2c(C(C)C)c(C)nc3cc([C@H]4CC[C@H](C(F)(F)F)CC4)nn23)C1` (stereo partly drawn) [Example 40] the EC50 was less than 100 nM. `CC(=O)N1CCC[C@](C)(c2cc(C)nc3cc([C@H]4CC[C@H](C(F)(F)F)CC4)nn23)C1` [Example 36] gave an EC50 of 1000 to 10000 nM. In the case of `COC(=O)N1CC[C@H](C)[C@@H](c2cc(C)nc3cc([C@H]4CC[C@H](C(F)(F)F)CC4)nn23)C1` (racemic) [Example 159], the EC50 is reported as 100 to 1000 nM. `Cc1nc2cc([C@H]3CC[C@H](C(F)(F)F)CC3)nn2c([C@]2(C)CCCN(CC(N)=O)C2)c1C` [Example 49] gave an EC50 of 1000 to 10000 nM. For `Cc1nc2cc([C@H]3CC[C@H](C(F)(F)F)CC3)nn2c(C2CN(C(=O)C3(C)COC3)CC(F)(F)C2)c1C` (stereo partly drawn) [Example 79], the EC50 was 100 to 1000 nM. `COC(=O)N1C[C@H](c2cc(C)nc3cc([C@H]4CC[C@H](C(F)(F)F)CC4)nn23)OC[C@@H]1C(C)C` [Example 127] was tested, and the EC50 was 100 to 1000 nM. Molecule `Cc1cc([C@@H]2CN(C=O)CC[C@@H]2C)n2nc([C@H]3CC[C@H](C(F)(F)F)CC3)cc2n1` (racemic) [Example 160] has an EC50 of 100 to 1000 nM. With `CC(=O)N1CC[C@H](C)[C@H](c2c(C)c(C)nc3cc([C@H]4CC[C@H](C(F)(F)F)CC4)nn23)C1` (racemic) [Example 55] the EC50 was 100 to 1000 nM.
